# Measurements published in PMC4447944 (The Journal of Biological Chemistry, 2015).
# How the values were obtained:
# [1] = system: SMYD2-mediated methylation of p53 Lys370; experiment: Western blot for p53 Lys370me1, HEK293 cells co-transfected with FLAG-SMYD2 and FLAG-p53; format: cell-based; conditions: Homo sapiens, 0–2.5 μM, 28 h, read-out: IC50, decrease in p53 Lys370me1
# Method: (§1) Cell lysates were subject to 10% SDS-PAGE and transferred to a PVDF membrane. Each membrane was blocked in Odyssey Blocking Buffer (LI-COR Biosciences) and incubated with monoclonal anti-p53 (D01) antibody (Abcam, ab1101) or rabbit anti-p53 Lys^370me1 antibody (a kind gift from Dr. Shelley Berger) followed by detection with IRDye®680RD goat anti-mouse IgG (LI-COR Biosciences) and IRDye800CW goat anti-rabbit IgG (LI-COR Biosciences) on the Odyssey Imager (LI-COR Biosciences). […] 4–8 h later, cells were treated with 0–25 μM compound for 15 h. […] 24 h later, cells were lysed with 200 μl of MSD Tris Lysis Buffer^TM (Meso Scale Discovery). A MULTI-ARRAY^TM 96-well plate (Meso Scale Discovery, catalog number L15XA-3) was precoated with 2 μg/ml custom-made methyl-p53 antibody (Lampire) in PBS overnight at 4 °C. 150 μl/well MSD Blocking Solution A^TM (final concentration of 3%) was added followed by shaking at room temperature for 1 h. The plate was washed three times with 1× MSD Tris Wash Buffer^TM (Meso Scale Discovery). 0.5 μg of cell lysate in 25 μl/well MSD Tris Lysis Buffer was added, followed by shaking overnight at 4 °C. […] Following a final wash three times with 1× MSD Tris Wash Buffer, 150 μl/well 1× MSD Read Buffer^TM (Meso Scale Discovery) was added, and plates were read on an MSD SECTOR^TM Imager 6000 instrument (Meso Scale Discovery).
# [2] = system: SMYD2-induced p53 methylation; experiment: Cell-based ELISA for p53 Lys370me1, U2OS cells transfected with FLAG-SMYD2; conditions: Homo sapiens, 15 h
# Method: as §1
# [3] = target: T1, hABL1(pH396P) (Homo sapiens, UniProt P00519, H396P); experiment: KINOMEscan; format: binding
# T1 construct: purchased DiscoverX (KINOMEscan platform)
# [4] = target: T2, hABL2 (Homo sapiens, UniProt P42684); experiment: KINOMEscan; format: binding
# T2 construct: purchased DiscoverX (KINOMEscan platform)
# [5] = target: T3, hACVR2A (Homo sapiens, UniProt P27037); experiment: KINOMEscan; format: binding
# T3 construct: purchased DiscoverX (KINOMEscan platform)
# [6] = target: T4, hBLK (Homo sapiens, UniProt P51451); experiment: KINOMEscan; format: binding
# T4 construct: purchased DiscoverX
# [7] = target: T5, hBMX (Homo sapiens, UniProt P51813); experiment: KINOMEscan; format: binding
# T5 construct: purchased DiscoverX
# T5 sequence (P51813 whole entry): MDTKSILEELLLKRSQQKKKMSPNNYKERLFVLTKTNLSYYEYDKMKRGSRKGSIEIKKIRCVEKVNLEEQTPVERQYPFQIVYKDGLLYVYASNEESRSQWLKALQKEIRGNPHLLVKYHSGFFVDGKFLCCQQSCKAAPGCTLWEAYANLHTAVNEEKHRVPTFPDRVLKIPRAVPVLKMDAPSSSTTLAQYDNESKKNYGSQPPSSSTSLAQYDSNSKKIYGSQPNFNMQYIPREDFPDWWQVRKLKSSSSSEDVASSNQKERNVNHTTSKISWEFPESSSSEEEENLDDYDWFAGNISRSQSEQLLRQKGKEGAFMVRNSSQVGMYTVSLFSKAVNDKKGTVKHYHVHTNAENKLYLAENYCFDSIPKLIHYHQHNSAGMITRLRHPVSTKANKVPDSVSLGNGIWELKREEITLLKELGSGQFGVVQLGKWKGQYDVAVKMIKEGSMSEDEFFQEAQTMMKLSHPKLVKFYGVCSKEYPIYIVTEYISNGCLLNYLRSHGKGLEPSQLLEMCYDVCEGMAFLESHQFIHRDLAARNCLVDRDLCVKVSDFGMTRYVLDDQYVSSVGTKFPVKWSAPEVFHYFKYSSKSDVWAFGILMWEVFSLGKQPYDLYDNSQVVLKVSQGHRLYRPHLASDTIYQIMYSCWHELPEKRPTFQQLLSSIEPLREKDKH
# [8] = target: T6, hBRSK1 (Homo sapiens, UniProt Q8TDC3); experiment: KINOMEscan; format: binding
# T6 construct: purchased DiscoverX
# [9] = target: T7, hBUB1 (Homo sapiens, UniProt O43683); experiment: KINOMEscan; format: binding
# T7 construct: purchased DiscoverX
# [10] = target: T8, hCSNK1D (Homo sapiens, UniProt P48730); experiment: KINOMEscan; format: binding
# T8 construct: purchased DiscoverX (KINOMEscan platform)
# T8 sequence (P48730 whole entry): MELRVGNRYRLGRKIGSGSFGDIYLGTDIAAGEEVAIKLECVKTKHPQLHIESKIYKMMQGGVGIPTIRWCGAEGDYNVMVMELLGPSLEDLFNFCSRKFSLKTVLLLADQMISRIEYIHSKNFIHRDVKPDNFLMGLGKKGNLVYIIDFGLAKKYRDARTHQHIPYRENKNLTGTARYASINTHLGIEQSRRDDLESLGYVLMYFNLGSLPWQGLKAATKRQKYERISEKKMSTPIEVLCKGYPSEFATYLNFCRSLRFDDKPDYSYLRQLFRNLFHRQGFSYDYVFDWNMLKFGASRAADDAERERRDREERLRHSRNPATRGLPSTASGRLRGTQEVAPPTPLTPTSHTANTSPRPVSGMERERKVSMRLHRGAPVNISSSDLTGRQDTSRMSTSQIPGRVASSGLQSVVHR
# [11] = target: T9, hDMPK2 (Homo sapiens, UniProt Q6DT37); experiment: KINOMEscan; format: binding
# T9 construct: purchased DiscoverX (KINOMEscan platform)
# [12] = target: T10, hDYRK1B (Homo sapiens, UniProt Q9Y463); experiment: KINOMEscan; format: binding; conditions: read-out: Inhibition at the 20 μM dose
# T10 construct: purchased DiscoverX
# T10 sequence (Q9Y463 whole entry): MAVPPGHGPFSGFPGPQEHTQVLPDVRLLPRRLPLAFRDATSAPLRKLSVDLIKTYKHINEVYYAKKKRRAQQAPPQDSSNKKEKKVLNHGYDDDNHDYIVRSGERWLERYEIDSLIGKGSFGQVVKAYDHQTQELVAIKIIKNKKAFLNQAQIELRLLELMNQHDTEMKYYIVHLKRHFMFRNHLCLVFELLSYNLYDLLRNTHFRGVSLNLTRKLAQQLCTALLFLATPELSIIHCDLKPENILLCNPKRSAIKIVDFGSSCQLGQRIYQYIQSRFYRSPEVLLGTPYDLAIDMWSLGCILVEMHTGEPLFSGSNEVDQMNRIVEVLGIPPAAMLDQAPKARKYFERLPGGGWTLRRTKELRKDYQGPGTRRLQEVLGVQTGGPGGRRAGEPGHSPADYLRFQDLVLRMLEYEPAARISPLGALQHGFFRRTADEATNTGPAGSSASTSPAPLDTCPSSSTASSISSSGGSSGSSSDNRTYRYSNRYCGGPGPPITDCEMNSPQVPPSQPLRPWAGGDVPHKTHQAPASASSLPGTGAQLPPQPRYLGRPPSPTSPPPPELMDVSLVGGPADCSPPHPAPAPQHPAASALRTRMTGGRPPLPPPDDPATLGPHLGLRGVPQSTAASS
# [13] = target: T11, hERK3 (Homo sapiens, UniProt Q16659); experiment: KINOMEscan; format: binding
# T11 construct: purchased DiscoverX
# [14] = target: T12, hKIT(V559D,V654A) (Homo sapiens, UniProt P10721, V559D/V654A); experiment: KINOMEscan; format: binding
# T12 construct: purchased DiscoverX (KINOMEscan platform)
# [15] = target: T13, hKIT-autoinhibited (Homo sapiens, UniProt P10721); experiment: KINOMEscan; format: binding
# T13 construct: purchased DiscoverX (KINOMEscan platform)
# [16] = target: T14, hMAK (Homo sapiens, UniProt P20794); experiment: KINOMEscan; format: binding
# T14 construct: purchased DiscoverX (KINOMEscan platform)
# [17] = target: T15, hMEK1 (Homo sapiens, UniProt Q02750); experiment: KINOMEscan; format: binding
# T15 construct: purchased DiscoverX
# [18] = target: T16, hMINK (Homo sapiens, UniProt Q8N4C8); experiment: KINOMEscan; format: binding
# T16 construct: purchased DiscoverX
# [19] = target: T17, hRIPK2 (Homo sapiens, UniProt O43353); experiment: KINOMEscan; format: binding
# T17 construct: purchased DiscoverX (KINOMEscan platform)
# T17 sequence (O43353 whole entry): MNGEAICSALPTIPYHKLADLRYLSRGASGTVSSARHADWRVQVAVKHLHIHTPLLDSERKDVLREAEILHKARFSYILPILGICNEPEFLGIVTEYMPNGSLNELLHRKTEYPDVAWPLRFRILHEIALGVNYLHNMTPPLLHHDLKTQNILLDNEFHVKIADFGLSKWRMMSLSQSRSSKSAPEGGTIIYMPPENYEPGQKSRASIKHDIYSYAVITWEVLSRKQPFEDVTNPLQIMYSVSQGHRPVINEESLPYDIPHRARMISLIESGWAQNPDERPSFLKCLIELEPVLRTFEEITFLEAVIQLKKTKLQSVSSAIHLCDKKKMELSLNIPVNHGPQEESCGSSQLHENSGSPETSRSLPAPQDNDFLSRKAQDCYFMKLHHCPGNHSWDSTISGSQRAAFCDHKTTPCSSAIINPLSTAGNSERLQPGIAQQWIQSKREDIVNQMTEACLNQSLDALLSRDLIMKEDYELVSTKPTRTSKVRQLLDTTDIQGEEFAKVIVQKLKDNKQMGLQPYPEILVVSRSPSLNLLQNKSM
# [20] = target: T18, hSNRK (Homo sapiens, UniProt Q9NRH2); experiment: KINOMEscan; format: binding
# T18 construct: purchased DiscoverX (KINOMEscan platform)
# [21] = target: T19, hSTK35 (Homo sapiens, UniProt Q8TDR2); experiment: KINOMEscan; format: binding
# T19 construct: purchased DiscoverX (KINOMEscan platform)
# T19 sequence (Q8TDR2 whole entry): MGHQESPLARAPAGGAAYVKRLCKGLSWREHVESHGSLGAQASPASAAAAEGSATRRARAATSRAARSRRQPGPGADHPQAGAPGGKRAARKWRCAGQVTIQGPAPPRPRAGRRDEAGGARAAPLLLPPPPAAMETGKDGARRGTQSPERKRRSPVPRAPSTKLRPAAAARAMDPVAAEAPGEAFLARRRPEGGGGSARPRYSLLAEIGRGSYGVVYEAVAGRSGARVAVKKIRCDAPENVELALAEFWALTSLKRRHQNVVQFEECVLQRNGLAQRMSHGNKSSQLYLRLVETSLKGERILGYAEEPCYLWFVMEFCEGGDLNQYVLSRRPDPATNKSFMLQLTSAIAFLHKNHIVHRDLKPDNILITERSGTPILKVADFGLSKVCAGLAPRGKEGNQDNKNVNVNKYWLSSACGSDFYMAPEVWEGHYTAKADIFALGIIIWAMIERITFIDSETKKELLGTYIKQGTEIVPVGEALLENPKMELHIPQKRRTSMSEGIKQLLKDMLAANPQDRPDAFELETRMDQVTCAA
# [22] = target: T20, hTAOK3 (Homo sapiens, UniProt Q9H2K8); experiment: KINOMEscan; format: binding
# T20 construct: purchased DiscoverX
# [23] = target: T21, hTYRO3 (Homo sapiens, UniProt Q06418); experiment: KINOMEscan; format: binding
# T21 construct: purchased DiscoverX
# T21 sequence (Q06418 41-890): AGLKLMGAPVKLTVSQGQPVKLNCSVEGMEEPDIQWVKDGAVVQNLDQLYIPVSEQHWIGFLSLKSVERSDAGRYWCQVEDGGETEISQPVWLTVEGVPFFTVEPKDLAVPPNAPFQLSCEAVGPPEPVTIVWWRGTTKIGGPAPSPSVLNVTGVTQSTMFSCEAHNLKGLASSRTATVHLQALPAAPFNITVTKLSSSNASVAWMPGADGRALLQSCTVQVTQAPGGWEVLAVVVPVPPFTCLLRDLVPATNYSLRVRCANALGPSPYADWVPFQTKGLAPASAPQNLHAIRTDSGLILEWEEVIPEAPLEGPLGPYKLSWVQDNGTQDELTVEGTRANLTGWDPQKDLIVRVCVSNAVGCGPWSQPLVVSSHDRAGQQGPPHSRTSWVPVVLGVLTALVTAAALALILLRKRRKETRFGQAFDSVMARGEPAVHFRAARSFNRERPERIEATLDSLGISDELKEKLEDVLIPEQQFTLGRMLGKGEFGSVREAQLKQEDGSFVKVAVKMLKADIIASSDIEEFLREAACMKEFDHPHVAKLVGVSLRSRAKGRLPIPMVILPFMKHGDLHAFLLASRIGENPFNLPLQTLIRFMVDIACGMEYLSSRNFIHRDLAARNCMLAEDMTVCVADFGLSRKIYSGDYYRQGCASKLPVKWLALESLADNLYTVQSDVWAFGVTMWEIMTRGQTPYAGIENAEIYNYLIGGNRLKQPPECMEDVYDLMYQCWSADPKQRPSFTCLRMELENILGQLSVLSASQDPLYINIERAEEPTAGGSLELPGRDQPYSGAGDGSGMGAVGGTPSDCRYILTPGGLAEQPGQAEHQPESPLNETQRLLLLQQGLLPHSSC
# [24] = target: T22, hULK3 (Homo sapiens, UniProt Q6PHR2); experiment: KINOMEscan; format: binding
# T22 construct: purchased DiscoverX
# [25] = target: T23, hRARα (Homo sapiens, UniProt P10276); experiment: Nuclear hormone receptor assay (Eurofins-CEREP); conditions: read-out: Relative IC50
# T23 construct: Eurofins-CEREP
# [26] = target: T24, CYP2C9 (Homo sapiens, UniProt P11712); experiment: Cytochrome p450 inhibition (Eurofins-CEREP); format: in vitro ADME
# T24 construct: Eurofins-CEREP
# T24 sequence (P11712 whole entry, species assumed): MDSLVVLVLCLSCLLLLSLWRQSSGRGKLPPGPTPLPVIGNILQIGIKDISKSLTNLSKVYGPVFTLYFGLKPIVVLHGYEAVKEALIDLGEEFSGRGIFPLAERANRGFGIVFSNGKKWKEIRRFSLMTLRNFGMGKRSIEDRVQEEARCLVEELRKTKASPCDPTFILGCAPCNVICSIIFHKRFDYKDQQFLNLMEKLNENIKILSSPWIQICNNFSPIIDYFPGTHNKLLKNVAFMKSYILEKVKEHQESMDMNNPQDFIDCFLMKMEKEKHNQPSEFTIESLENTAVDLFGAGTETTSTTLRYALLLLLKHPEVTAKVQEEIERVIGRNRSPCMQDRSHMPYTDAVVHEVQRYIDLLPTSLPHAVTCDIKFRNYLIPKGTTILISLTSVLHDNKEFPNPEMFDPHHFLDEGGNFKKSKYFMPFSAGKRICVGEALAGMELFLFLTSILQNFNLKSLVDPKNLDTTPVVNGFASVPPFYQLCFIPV
# [27] = target: hADRβ1 (Homo sapiens, UniProt P08588); experiment: cAMP Agonist (Eurofins-CEREP); conditions: @ 10 μM
# [28] = target: hD2L (Homo sapiens, UniProt P14416); experiment: β-arrestin Antagonist (Eurofins-CEREP); conditions: read-out: % Effect, Inhibition
# Sequence of hD2L (P14416 whole entry): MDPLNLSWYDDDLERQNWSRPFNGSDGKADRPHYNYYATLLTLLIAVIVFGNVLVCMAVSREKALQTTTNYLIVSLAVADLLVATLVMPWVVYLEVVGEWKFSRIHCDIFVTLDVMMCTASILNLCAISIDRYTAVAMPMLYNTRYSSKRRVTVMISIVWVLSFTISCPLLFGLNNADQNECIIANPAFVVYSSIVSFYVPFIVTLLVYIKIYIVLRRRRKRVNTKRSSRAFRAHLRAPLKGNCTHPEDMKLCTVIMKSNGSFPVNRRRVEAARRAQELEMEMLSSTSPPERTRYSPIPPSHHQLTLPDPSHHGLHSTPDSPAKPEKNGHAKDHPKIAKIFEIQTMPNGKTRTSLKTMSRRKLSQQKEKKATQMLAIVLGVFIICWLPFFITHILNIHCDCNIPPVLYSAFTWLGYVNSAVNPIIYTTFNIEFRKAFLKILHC
# [29] = target: hOPRm1 (Homo sapiens, UniProt P35372); experiment: β-arrestin Antagonist (Eurofins-CEREP); conditions: read-out: % Effect, Inhibition
# Sequence of hOPRm1 (P35372 whole entry): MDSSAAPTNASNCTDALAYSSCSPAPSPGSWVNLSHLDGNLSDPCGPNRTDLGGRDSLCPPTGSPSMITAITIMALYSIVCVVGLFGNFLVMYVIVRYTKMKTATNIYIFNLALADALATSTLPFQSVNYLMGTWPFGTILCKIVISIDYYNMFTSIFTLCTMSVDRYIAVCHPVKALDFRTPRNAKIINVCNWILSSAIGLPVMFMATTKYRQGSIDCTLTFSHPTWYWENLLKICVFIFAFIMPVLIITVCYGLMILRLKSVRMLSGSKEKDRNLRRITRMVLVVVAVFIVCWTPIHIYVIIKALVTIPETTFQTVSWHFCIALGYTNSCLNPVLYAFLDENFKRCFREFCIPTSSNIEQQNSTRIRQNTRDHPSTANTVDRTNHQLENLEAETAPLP
# [30] = target: hD1 (Homo sapiens, UniProt P21728); experiment: cAMP 1% DMSO Potentiation (Eurofins-CEREP); conditions: @ 10 μM
compound,measurement,setting,value
"Cc1cn(CCN2CCN(c3ccccc3-c3cc(C#N)cc(C(=O)NCCCN4CCCC4)c3)CC2)c2ccccc12 [LLY-507, 3-cyano-5-{2-[4-[2-(3-methylindol-1-yl)ethyl]piperazin-1-yl]-phenyl}-N-[(3-pyrrolidin-1-yl)propyl]benzamide]",IC50,[1],< 1 µM
same,IC50,[2],0.6 µM
same,IC50,[3],> 20 µM
same,IC50,[4],> 20 µM
same,IC50,[5],> 20 µM
same,IC50,[6],> 20 µM
same,IC50,[7],> 20 µM
same,IC50,[8],> 20 µM
same,IC50,[9],> 20 µM
same,IC50,[10],> 20 µM
same,IC50,[11],> 20 µM
same,inhibition at 20 µM,[12],< 50%
same,IC50,[13],> 20 µM
same,IC50,[14],> 20 µM
same,IC50,[15],> 20 µM
same,IC50,[16],> 20 µM
same,IC50,[17],> 20 µM
same,IC50,[18],> 20 µM
same,IC50,[19],> 20 µM
same,IC50,[20],> 20 µM
same,IC50,[21],> 20 µM
same,IC50,[22],> 20 µM
same,IC50,[23],> 20 µM
same,IC50,[24],> 20 µM
same,IC50,[25],> 10 µM
same,% inhibition @ 10 μM,[26],34.2%
same,"% Effect, Stimulation",[27],52.7%
same,inhibition at 10 µM,[28],29.8%
same,inhibition at 1 µM,[29],-3.9%
same,"% Effect, Potentiation",[30],-19.4%
